In ChEMBL document CHEMBL1201862, “PubChem BioAssay data set” (2004):
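Cells were grown in 96-well plates and exposed to each compound for 48 hours at five concentrations; endpoints were interpolated linearly between bracketing concentrations, or set to the highest concentration if not reached. GI50 = concentration required for 50% inhibition of growth.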 Activity calls are given as the source filed them. Cut-off read from the data, not from the text of the source: active = GI50 up to about 1.1 µM and inactive = higher.

How the values were obtained:
Test in all cases: inhibition of tumour cell growth, NCI panel, 48 h
[1] = test system: 786-0
[2] = test system: ACHN
[3] = test system: HCC 2998
[4] = test system: HOP-62
[5] = test system: K562
[6] = test system: KM12
[7] = test system: LOX IMVI
[8] = test system: MOLT-4
[9] = test system: Malme-3M
[10] = test system: NCI-H226
[11] = test system: OVCAR-3
[12] = test system: OVCAR-4
[13] = test system: SF-268
[14] = test system: SK-MEL-28
[15] = test system: SW-620
[16] = test system: U-251
[17] = test system: UACC-62
[18] = test system: UO-31
[19] = test system: SK-MEL-5

Measured: GI50

CSC(=N)N1N=C2c3ccccc3CC[C@@H]2[C@@H]1c1ccccc1
inactive: [1] 12.9 µM | [2] 18.3 µM | [3] 15 µM | [4] 15.7 µM | [5] 6.03 µM | [6] 14.4 µM | [7] 14.5 µM | [8] 9.71 µM | [9] 12.8 µM | [10] 9.73 µM | [11] 15.8 µM | [12] 14.8 µM | [13] 22 µM | [14] 15.6 µM | [15] 15.5 µM | [16] 17.1 µM | [17] 17 µM | [18] 9.64 µM

CC(=O)N1C(=O)C(=O)c2cc(Cl)ccc21
inactive: [1] > 100 µM | [2] > 100 µM | [3] > 100 µM | [5] > 100 µM | [6] > 100 µM | [7] > 100 µM | [8] > 100 µM | [9] > 100 µM | [10] > 100 µM | [11] > 100 µM | [12] > 100 µM | [13] > 100 µM | [14] > 100 µM | [19] > 100 µM | [15] > 100 µM | [16] > 100 µM | [17] > 100 µM | [18] > 100 µM

COc1nc(OC)nc(Sc2ccc(Sc3ccc(Sc4nc(OC)nc(OC)n4)cc3)cc2)n1
inactive: [1] > 100 µM | [2] > 100 µM | [3] > 100 µM | [5] > 100 µM | [6] > 100 µM | [7] > 100 µM | [8] > 100 µM | [9] > 100 µM | [10] > 100 µM | [11] > 100 µM | [12] > 100 µM | [13] > 100 µM | [14] > 100 µM | [19] > 100 µM | [15] > 100 µM | [16] > 100 µM | [17] > 100 µM | [18] > 100 µM

O=C(Nc1cccc(O)c1)C(=O)C(C(=O)c1ccc(Cl)c(Cl)c1)C1OC(=O)c2ccccc21 (stereo not drawn)
inactive: [1] 13.6 µM | [2] 14.6 µM | [3] 15.5 µM | [5] 15 µM | [6] 19.5 µM | [7] 17.3 µM | [8] 5.01 µM | [9] 14.4 µM | [10] 3.46 µM | [12] 13.3 µM | [13] 10.4 µM | [14] 21.6 µM | [19] 19.7 µM | [15] 14.4 µM | [16] 8.02 µM | [17] 17.5 µM | [18] 13.7 µM

Oc1cccc2c1NC1=C(CCC/C1=C\c1ccccc1)C2
inactive: [1] > 100 µM | [2] 53.5 µM | [3] 49.3 µM | [4] > 100 µM | [5] 59.6 µM | [6] > 100 µM | [7] 73.3 µM | [8] 34.8 µM | [9] > 100 µM | [10] > 100 µM | [11] > 100 µM | [13] > 100 µM | [14] > 100 µM | [19] > 100 µM | [15] > 100 µM | [16] 69 µM | [18] 51.2 µM

COc1cc2c(/C=C3/C(=O)Nc4ccc(Cl)cc43)c(Cl)n(Cc3ccccc3)c2cc1C
inactive: [1] 2.59 µM | [2] 2.41 µM | [4] 2.11 µM | [5] 3.14 µM | [6] 2.33 µM | [7] 3.57 µM | [8] 2.26 µM | [9] 2.22 µM | [10] 2.81 µM | [11] 1.98 µM | [12] 1.95 µM | [13] 6.19 µM | [14] 2.39 µM | [19] 3.32 µM | [15] 6.73 µM | [16] 2.3 µM | [17] 3.08 µM | [18] 2.51 µM

COC(=O)C(=O)C(C(=O)C(=O)Nc1ccc([N+](=O)[O-])cc1)c1nc2ccccc2nc1O (stereo not drawn)
inactive: [1] > 100 µM | [2] 55.2 µM | [4] 39.6 µM | [5] 39.1 µM | [6] 57.3 µM | [7] > 100 µM | [8] > 100 µM | [9] > 100 µM | [10] > 100 µM | [11] > 100 µM | [12] > 100 µM | [13] > 100 µM | [14] > 100 µM | [19] 43.6 µM | [15] > 100 µM | [16] > 100 µM | [17] 19.6 µM | [18] > 100 µM

Cc1cc2c(=O)cc(-c3ccncc3)oc2c(C(=O)O)c1C
inactive: [1] > 100 µM | [2] > 100 µM | [3] > 100 µM | [4] > 100 µM | [7] > 100 µM | [8] > 100 µM | [9] > 100 µM | [10] > 100 µM | [11] > 100 µM | [13] > 100 µM | [14] > 100 µM | [15] > 100 µM | [16] > 100 µM | [17] > 100 µM | [18] > 100 µM

C#C[C@]1(O)CCCC2=CC(=O)CC[C@@]21C
inactive: [1] > 100 µM | [2] > 100 µM | [3] > 100 µM | [5] > 100 µM | [6] > 100 µM | [8] > 100 µM | [9] > 100 µM | [10] > 100 µM | [11] > 100 µM | [13] > 100 µM | [14] > 100 µM | [19] > 100 µM | [15] > 100 µM | [16] > 100 µM | [18] > 100 µM

CCCCCCCCCCCCc1ccsc1-c1ccc(-c2ccc(-c3sc(-c4cc(CCCCCCCCCCCC)c(-c5ccc(-c6ccc(-c7sccc7CCCCCCCCCCCC)s6)s5)s4)cc3CCCCCCCCCCCC)s2)s1
inactive: [1] > 100 µM | [2] > 100 µM | [3] > 100 µM | [4] > 100 µM | [5] > 100 µM | [6] > 100 µM | [8] > 100 µM | [10] > 100 µM | [11] > 100 µM | [12] > 100 µM | [13] > 100 µM | [14] > 100 µM | [19] > 100 µM | [15] > 100 µM | [16] > 100 µM | [17] > 100 µM | [18] > 100 µM

COc1c(OC)c(N)c2cc(C)c(=O)c(C)cc2c1N
inactive: [1] 64.7 µM | [2] > 100 µM | [3] > 100 µM | [4] > 100 µM | [5] > 100 µM | [6] > 100 µM | [7] 55.2 µM | [8] > 100 µM | [9] > 100 µM | [11] > 100 µM | [12] > 100 µM | [13] > 100 µM | [19] > 100 µM | [15] 18.1 µM | [16] > 100 µM | [17] > 100 µM | [18] > 100 µM

NC(CCSCCF)C(=O)O (stereo not drawn)
inactive: [1] > 100 µM | [2] > 100 µM | [4] > 100 µM | [5] > 100 µM | [6] > 100 µM | [7] > 100 µM | [8] > 100 µM | [10] > 100 µM | [11] > 100 µM | [12] > 100 µM | [13] > 100 µM | [14] > 100 µM | [15] > 100 µM | [16] > 100 µM | [17] > 100 µM | [18] > 100 µM

C[C@@H](CO)OCOCc1ccccc1
inactive: [1] > 100 µM | [3] > 100 µM | [4] > 100 µM | [5] > 100 µM | [6] > 100 µM | [7] > 100 µM | [8] > 100 µM | [9] > 100 µM | [11] > 100 µM | [12] > 100 µM | [13] > 100 µM | [14] > 100 µM | [19] > 100 µM | [15] > 100 µM | [16] > 100 µM | [17] > 100 µM | [18] > 100 µM

CSCC(COC(C)=O)(CSC)c1ccncc1
inactive: [1] > 100 µM | [2] > 100 µM | [3] > 100 µM | [4] > 100 µM | [5] > 100 µM | [6] > 100 µM | [7] > 100 µM | [8] > 100 µM | [9] > 100 µM | [11] > 100 µM | [12] > 100 µM | [13] > 100 µM | [14] > 100 µM | [19] 53.6 µM | [15] > 100 µM | [16] > 100 µM | [17] > 100 µM | [18] > 100 µM

C[C@@H]1CC[C@]2(C(=O)O)CC[C@]3(C)C(=CC[C@@H]4[C@@]5(C)CC[C@H](O)C(C)(C)[C@@H]5CC[C@]43C)[C@@H]2[C@]1(C)O [POMOLIC ACID]
inactive: [1] 5.38 µM | [2] 16.5 µM | [3] 15 µM | [5] 6.49 µM | [6] 12.4 µM | [7] 15.7 µM | [8] 4.86 µM | [9] 12.3 µM | [11] 18.6 µM | [12] 16.8 µM | [13] 17.1 µM | [14] 13.6 µM | [15] 21.9 µM | [16] 14.1 µM | [17] 3.49 µM | [18] 11.3 µM

NNC(=O)N/N=C1\CNC(=O)C(=O)C1c1nc2ccccc2s1 (stereo not drawn)
inactive: [1] > 100 µM | [2] > 100 µM | [3] > 100 µM | [4] > 100 µM | [5] > 100 µM | [6] > 100 µM | [7] > 100 µM | [9] > 100 µM | [10] > 100 µM | [11] > 100 µM | [12] > 100 µM | [13] > 100 µM | [14] > 100 µM | [19] > 100 µM | [15] > 100 µM | [16] > 100 µM | [17] > 100 µM | [18] > 100 µM
